From publication PMC12133000 (PLOS One, 2025)
Values joined by “and” are separate entries in the source; they are usually repeats but may differ in a detail not shown here. Identical values can stand only once.

Assay: Pharmacokinetics of rivaroxaban in rats after avitinib or gefitinib pretreatment
Format: in vivo, Sprague–Dawley (SD) rats
Set-up: AUC(0-∞): concentration or dose not given beside the values
Description: Eighteen male Sprague–Dawley (SD) rats weighing 300 ± 20 g were provided by the Experimental Animal Center of Wenzhou Medical University (Wenzhou, China) and kept under controlled conditions at a temperature of 23 ± 2 °C, relative humidity of 50 ± 10%, and 12 h light–dark cycle. Eighteen male SD rats were randomly assigned to three groups: avitinib, gefitinib, and control, with six rats per group. Prior to the experiment, the rats were not administered any other medications and fasted for 12 h. The experimental procedures and protocols adhered to Animal Ethics standards and were approved by the Animal Care and Use Committee of Wenzhou Medical University (approval no. wydw2019–650). All rats were anesthetized with sodium pentobarbital (40mg/kg, i.p) to relieve pain. The rats were killed through cervical dislocation.
Prior to the experiment in vivo, the six rats in the avitinib group were administered 30 mg/kg avitinib and 0.5% sodium carboxymethyl cellulose (CMC-Na) solution by gavage daily for 7 d. […] The supernatant was collected and stored at −80 °C. After thawing, 50 μL of plasma was extracted; 100 μL of acetonitrile solution containing midazolam (200 ng/mL) was then added to induce protein precipitation. After vortexing for 30 s and centrifuging at 13,000 rpm for 5 min, the […].
All assays were performed in triplicate, and the results are expressed as mean ± standard deviation. DAS software v. […] SPSS v. 25.0 (IBM, NY, USA) was used for data processing. Student’s t-tests were used to detect differences between groups. Differences with p < 0.05 were considered statistically significant.

[1] = avitinib group, single rats No1-No6, listed as 利伐沙班
[2] = gefitinib group, single rats No1-No6, listed as 利伐沙班

O=C(NC[C@H]1CN(c2ccc(N3CCOCC3=O)cc2)C(=O)O1)c1ccc(Cl)s1 [rivaroxaban, Rivaroxaban]
AUMC(0-t) (avitinib group, Mean): 34198 h*h*ug/L
AUMC(0-∞) (avitinib group, Mean): 40098.5 h*h*ug/L
MRT(0-∞) (avitinib group, Mean): 4.258 h
R_AUC(t/∞) (avitinib group, Mean): 96.35%
VRT(0-t) (avitinib group, Mean): 6.828 h^2
VRT(0-∞) (avitinib group, Mean): 12.881 h^2
Vz/F (avitinib group, Mean): 3.719 L/kg
AUC(0-t) [1]: 6581.83 ng·h/mL and 7888.62 ng·h/mL and 9151.91 ng·h/mL and 7417.4 ng·h/mL and 6560.88 ng·h/mL and 16372.3 ng·h/mL
AUC(0-∞) [1]: 6854.37 ng·h/mL and 9138.32 ng·h/mL and 9162.9 ng·h/mL and 7462.9 ng·h/mL and 6602.34 ng·h/mL and 16863.5 ng·h/mL
AUMC(0-t) [1]: 25199.7 h*h*ug/L and 32914.3 h*h*ug/L and 26176.1 h*h*ug/L and 34761 h*h*ug/L and 21050.6 h*h*ug/L and 65086.6 h*h*ug/L
AUMC(0-∞) [1]: 29578.1 h*h*ug/L and 55191.1 h*h*ug/L and 26325.9 h*h*ug/L and 35414.7 h*h*ug/L and 21638.6 h*h*ug/L and 72442.7 h*h*ug/L
CLz/F [1]: 24.32 mL/min/kg and 18.23 mL/min/kg and 18.18 mL/min/kg and 22.3 mL/min/kg and 25.25 mL/min/kg and 9.88 mL/min/kg
Cmax [1]: 1423.2 ng/mL and 1593.7 ng/mL and 2386.3 ng/mL and 1162.7 ng/mL and 1561.2 ng/mL and 2761.8 ng/mL
MRT(0-t) [1]: 4.172 h and 2.86 h and 4.686 h and 3.208 h and 3.975 h
MRT(0-∞) [1]: 4.315 h and 6.04 h and 4.745 h and 3.277 h and 4.296 h
R_AUC(t/∞) [1]: 96% and 86.3% and 99.9% and 99.4% (2×) and 97.1%
VRT(0-t) [1]: 8.179 h^2 and 9.654 h^2 and 3.358 h^2 and 8.878 h^2 and 4.734 h^2 and 6.165 h^2
VRT(0-∞) [1]: 14.228 h^2 and 34.982 h^2 and 3.496 h^2 and 9.426 h^2 and 5.486 h^2 and 9.666 h^2
Vz/F [1]: 5.931 L/kg and 6.375 L/kg and 1.763 L/kg and 3.171 L/kg and 3.308 L/kg and 1.765 L/kg
t1/2z [1]: 2.817 h and 4.037 h and 1.12 h and 1.64 h and 1.514 h and 2.062 h
λz [1]: 0.246 h⁻¹ and 0.172 h⁻¹ and 0.619 h⁻¹ and 0.423 h⁻¹ and 0.458 h⁻¹ and 0.336 h⁻¹
AUMC(0-t) (gefitinib group, Mean): 283625 h*h*ug/L
AUMC(0-∞) (gefitinib group, Mean): 684002 h*h*ug/L
R_AUC(t/∞) (gefitinib group, Mean): 79.633%
VRT(0-t) (gefitinib group, Mean): 8.14 h^2
VRT(0-∞) (gefitinib group, Mean): 63.366 h^2
AUC(0-t) [2]: 48396.5 ng·h/mL and 60392.6 ng·h/mL and 53896.5 ng·h/mL and 64214.9 ng·h/mL and 58569.4 ng·h/mL
AUC(0-∞) [2]: 54327.6 ng·h/mL and 62633.7 ng·h/mL and 64818.2 ng·h/mL and 71935.8 ng·h/mL and 93798.8 ng·h/mL
AUMC(0-t) [2]: 349046 h*h*ug/L and 247888 h*h*ug/L and 261964 h*h*ug/L and 270195 h*h*ug/L and 282576 h*h*ug/L and 290080 h*h*ug/L
AUMC(0-∞) [2]: 1493251 h*h*ug/L and 344803 h*h*ug/L and 295419 h*h*ug/L and 469845 h*h*ug/L and 411554 h*h*ug/L and 1089140 h*h*ug/L
Cmax [2]: 6430.2 ng/mL and 11259.7 ng/mL and 7015.4 ng/mL and 10641.7 ng/mL and 7734.1 ng/mL
MRT(0-t) [2]: 5.122 h and 4.338 h and 5.013 h and 4.4 h and 4.953 h
MRT(0-∞) [2]: 13.743 h and 6.347 h and 4.717 h and 7.249 h and 5.721 h and 11.611 h
R_AUC(t/∞) [2]: 57.4% and 89.1% and 96.4% and 83.2% and 89.3% and 62.4%
VRT(0-t) [2]: 10.639 h^2 and 8.135 h^2 and 6.361 h^2 and 8.635 h^2 and 7.676 h^2 and 7.393 h^2
VRT(0-∞) [2]: 164.942 h^2 and 21.543 h^2 and 10.309 h^2 and 38.485 h^2 and 23.734 h^2 and 121.182 h^2
Vz/F [2]: 1.173 L/kg and 0.799 L/kg and 0.467 L/kg and 0.969 L/kg and 0.654 L/kg and 1.139 L/kg
t1/2z [2]: 8.833 h and 3.008 h and 2.029 h and 4.352 h and 3.261 h and 7.402 h
λz [2]: 0.078 h⁻¹ and 0.23 h⁻¹ and 0.342 h⁻¹ and 0.159 h⁻¹ and 0.213 h⁻¹ and 0.094 h⁻¹
concentration at 5 min (male, Sprague-Dawley, rat, plasma, oral, 10 mg/kg, rivaroxaban ng/ml mean, control (rivaroxaban alone) group, mean of rats 13-18, time 0.0833): 158 ng/mL
concentration at 0.25 h (male, Sprague-Dawley, rat, plasma, oral, 10 mg/kg, rivaroxaban ng/ml mean, control (rivaroxaban alone) group, mean of rats 13-18, time 0.25): 259 ng/mL
concentration at 0.5 h (male, Sprague-Dawley, rat, plasma, oral, 10 mg/kg, rivaroxaban ng/ml mean, control (rivaroxaban alone) group, mean of rats 13-18, time 0.5): 397 ng/mL
concentration at 1 h (male, Sprague-Dawley, rat, plasma, oral, 10 mg/kg, rivaroxaban ng/ml mean, control (rivaroxaban alone) group, mean of rats 13-18, time 1): 435 ng/mL
concentration at 2 h (male, Sprague-Dawley, rat, plasma, oral, 10 mg/kg, rivaroxaban ng/ml mean, control (rivaroxaban alone) group, mean of rats 13-18, time 2): 337 ng/mL
concentration at 3 h (male, Sprague-Dawley, rat, plasma, oral, 10 mg/kg, rivaroxaban ng/ml mean, control (rivaroxaban alone) group, mean of rats 13-18, time 3): 291 ng/mL
concentration at 4 h (male, Sprague-Dawley, rat, plasma, oral, 10 mg/kg, rivaroxaban ng/ml mean, control (rivaroxaban alone) group, mean of rats 13-18, time 4): 238 ng/mL
